We go through two sequences from patent US20040101534A1 (priority 2002, published 2004).

“Also recorded” adds a separate entry of the source.

The subject of assay [1] is JA2.1 T cells infected with vaccinia virus expressing pp65. More on the design: species or system HLA A2.1/K^b transgenic mice. Conditions: mouse, in vivo, sc.
Assay [2] relates to T2 cells loaded with pp65495-503. Conditions: mouse, in vivo; cited from earlier work.
Assay [3] deals with human PBL. Particulars: cited from earlier work.

In the case of VSTIVPYIGPALNIAAANLVPMVATV [Tet639V], in assay [1], the “recognition of endogenously processed pp65” value was “evident; also recorded: more prominent”.

Turning to NLVPMVATV [pp65495-503], the “CTL response directed at the pp65495-503 CTL epitope” value in assay [2] was “robust CTL response”. Also, the “CTL precursor memory response” value in assay [3] is “stimulates a CTL precursor (CTLp) memory response”.
